3 compounds from paper PMC12621043, “Un-LOK-ing a New Approach for Conformational Selective Targeting of STK10 (LOK)” (ACS Medicinal Chemistry Letters, 2025) can be followed below.

As usually defined, the ΔTm is the change in melting temperature against a reference sample.

Common to all, as to assay: DSF Tm panel
Common to all, as to assay type: binding
Holding throughout (conditions): 10 μM compound

Test [1] addresses T1, MAPK13A (Homo sapiens, UniProt O15264).
T1 construct: purchased in-house DSF kinase panel (SGC-style construct names; the trailing letter is the construct ID)
T1 sequence (O15264 1-365): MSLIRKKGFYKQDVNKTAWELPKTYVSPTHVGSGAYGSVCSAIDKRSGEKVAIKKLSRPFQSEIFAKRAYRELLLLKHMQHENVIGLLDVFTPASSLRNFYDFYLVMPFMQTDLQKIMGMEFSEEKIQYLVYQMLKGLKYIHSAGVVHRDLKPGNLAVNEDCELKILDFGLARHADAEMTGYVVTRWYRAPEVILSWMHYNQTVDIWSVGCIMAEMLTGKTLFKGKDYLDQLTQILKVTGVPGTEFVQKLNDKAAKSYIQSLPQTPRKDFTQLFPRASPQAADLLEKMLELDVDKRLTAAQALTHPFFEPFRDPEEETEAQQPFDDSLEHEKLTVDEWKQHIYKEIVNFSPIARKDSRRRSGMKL

In test [2] the target is T2, STK3 (STK3A) (Homo sapiens, UniProt Q13188).
T2 construct: purchased in-house DSF kinase panel (SGC-style construct names; the trailing letter is the construct ID)
T2 sequence (Q13188 16-313): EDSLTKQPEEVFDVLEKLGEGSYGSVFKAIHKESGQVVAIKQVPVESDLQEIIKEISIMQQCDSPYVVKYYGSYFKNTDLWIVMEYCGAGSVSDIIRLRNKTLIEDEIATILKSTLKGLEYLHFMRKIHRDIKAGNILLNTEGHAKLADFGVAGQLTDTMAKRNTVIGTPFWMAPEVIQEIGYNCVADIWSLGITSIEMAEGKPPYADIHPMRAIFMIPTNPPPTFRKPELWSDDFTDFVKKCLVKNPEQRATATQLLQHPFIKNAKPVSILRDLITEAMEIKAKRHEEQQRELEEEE

Test [3] deals with T3, EPHB3A (Homo sapiens, UniProt P54753).
T3 construct: purchased in-house DSF kinase panel (SGC-style construct names; the trailing letter is the construct ID)
T3 sequence (P54753 34-998): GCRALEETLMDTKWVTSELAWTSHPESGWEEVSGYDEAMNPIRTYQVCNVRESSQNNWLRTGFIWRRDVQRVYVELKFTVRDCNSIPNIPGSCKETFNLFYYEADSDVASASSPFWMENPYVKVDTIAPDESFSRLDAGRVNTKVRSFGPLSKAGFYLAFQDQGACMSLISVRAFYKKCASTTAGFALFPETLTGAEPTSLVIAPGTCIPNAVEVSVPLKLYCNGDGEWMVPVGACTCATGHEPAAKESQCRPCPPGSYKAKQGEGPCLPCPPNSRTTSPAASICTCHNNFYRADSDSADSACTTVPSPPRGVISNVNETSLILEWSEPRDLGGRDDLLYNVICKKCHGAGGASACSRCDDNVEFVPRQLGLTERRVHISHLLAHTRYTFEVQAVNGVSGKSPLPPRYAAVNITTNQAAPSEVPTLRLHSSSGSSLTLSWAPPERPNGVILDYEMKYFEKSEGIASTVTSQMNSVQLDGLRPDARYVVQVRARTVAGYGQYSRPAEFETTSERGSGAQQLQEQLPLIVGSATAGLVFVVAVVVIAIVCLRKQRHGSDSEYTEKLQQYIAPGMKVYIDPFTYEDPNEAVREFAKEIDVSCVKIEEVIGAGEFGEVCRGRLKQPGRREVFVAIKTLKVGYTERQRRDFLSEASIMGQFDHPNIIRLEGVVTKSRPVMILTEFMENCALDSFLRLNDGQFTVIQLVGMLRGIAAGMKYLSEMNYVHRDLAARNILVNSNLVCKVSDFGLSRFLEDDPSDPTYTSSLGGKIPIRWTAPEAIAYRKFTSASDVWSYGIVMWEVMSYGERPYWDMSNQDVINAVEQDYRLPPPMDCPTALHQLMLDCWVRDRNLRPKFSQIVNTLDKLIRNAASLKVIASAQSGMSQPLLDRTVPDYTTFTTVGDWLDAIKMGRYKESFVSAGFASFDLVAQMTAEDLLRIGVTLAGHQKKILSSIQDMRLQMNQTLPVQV

Test [4] concerns the target T4, MAPK8B (Homo sapiens, UniProt P45983).
T4 construct: purchased in-house DSF kinase panel (SGC-style construct names; the trailing letter is the construct ID)

Test [5] has as its target T5, STK17BA (Homo sapiens, UniProt O94768).
T5 construct: purchased in-house DSF kinase panel (SGC-style construct names; the trailing letter is the construct ID)
T5 sequence (O94768 25-329): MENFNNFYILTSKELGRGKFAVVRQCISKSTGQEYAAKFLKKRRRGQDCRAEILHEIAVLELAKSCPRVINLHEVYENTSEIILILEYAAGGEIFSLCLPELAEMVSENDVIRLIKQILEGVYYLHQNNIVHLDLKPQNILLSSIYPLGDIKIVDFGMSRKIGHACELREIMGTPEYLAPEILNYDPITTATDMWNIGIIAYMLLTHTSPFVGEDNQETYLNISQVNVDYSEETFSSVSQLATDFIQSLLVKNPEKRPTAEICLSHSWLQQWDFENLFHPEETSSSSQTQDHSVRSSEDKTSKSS

Test [6] deals with T6, GSG2A (Homo sapiens, UniProt Q8TF76).
T6 construct: purchased in-house DSF kinase panel (SGC-style construct names; the trailing letter is the construct ID)
T6 sequence (Q8TF76 465-798): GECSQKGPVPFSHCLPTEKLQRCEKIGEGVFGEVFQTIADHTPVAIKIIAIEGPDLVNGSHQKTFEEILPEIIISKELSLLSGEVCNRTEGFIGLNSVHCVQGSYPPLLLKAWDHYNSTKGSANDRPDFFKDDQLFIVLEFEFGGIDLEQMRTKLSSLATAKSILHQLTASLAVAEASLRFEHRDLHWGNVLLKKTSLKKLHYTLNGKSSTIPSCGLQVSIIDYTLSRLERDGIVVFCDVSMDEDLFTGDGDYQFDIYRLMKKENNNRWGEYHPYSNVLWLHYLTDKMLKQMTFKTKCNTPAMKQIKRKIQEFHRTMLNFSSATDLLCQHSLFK

Test [7] has as its target T7, DAPK1 (DAPK1A) (Homo sapiens, UniProt P53355).
T7 construct: purchased in-house DSF kinase panel (SGC-style construct names; the trailing letter is the construct ID)

Test [8] concerns the target T8, CAMK2BA (Homo sapiens, UniProt Q13554).
T8 construct: purchased in-house DSF kinase panel (SGC-style construct names; the trailing letter is the construct ID)

T8 sequence (Q13554 11-303): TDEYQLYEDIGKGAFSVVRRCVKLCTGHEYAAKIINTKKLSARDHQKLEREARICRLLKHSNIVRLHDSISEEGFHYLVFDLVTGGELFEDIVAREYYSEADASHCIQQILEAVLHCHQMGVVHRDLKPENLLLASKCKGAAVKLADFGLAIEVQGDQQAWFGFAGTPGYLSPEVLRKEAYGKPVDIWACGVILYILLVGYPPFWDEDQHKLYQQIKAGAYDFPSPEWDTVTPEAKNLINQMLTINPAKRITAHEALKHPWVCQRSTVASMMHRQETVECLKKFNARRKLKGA
T4 sequence (P45983 1-364): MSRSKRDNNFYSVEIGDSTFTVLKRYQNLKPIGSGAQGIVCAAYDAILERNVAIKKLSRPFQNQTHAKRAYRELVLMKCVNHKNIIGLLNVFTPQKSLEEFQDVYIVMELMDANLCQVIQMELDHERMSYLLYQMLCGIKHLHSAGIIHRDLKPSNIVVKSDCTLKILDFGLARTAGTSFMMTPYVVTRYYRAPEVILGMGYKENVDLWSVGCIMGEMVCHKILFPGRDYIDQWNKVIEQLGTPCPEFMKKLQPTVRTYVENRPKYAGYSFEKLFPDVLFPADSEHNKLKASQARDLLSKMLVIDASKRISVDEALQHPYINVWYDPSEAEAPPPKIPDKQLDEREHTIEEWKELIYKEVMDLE
T7 sequence (P53355 1-285): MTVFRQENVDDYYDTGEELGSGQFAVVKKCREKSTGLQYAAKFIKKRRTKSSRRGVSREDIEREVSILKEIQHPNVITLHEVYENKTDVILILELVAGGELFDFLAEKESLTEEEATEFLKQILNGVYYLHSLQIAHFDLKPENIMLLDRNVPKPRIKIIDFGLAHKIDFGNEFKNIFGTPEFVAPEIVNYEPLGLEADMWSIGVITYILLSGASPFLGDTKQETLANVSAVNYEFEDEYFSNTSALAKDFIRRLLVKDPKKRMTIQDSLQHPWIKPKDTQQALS

Take `COc1ccc(CNC(=O)Nc2ccc3cc2OCCOCCNc2ccn4ncc-3c4n2)cc1F` [compound 32]: the ΔTm at 10 µM is -0.3 °C in test [1]; 4.7 °C in test [2]; 0.6 °C in test [3]; 0.8 °C in test [4]; 3.4 °C in test [5]; 1 °C in test [6]. Besides, the shift in melting temperature (ΔTm) at 10 µM in test [7] was 0.4 °C; in test [8], 0 °C.
Consider `COc1cc(CNC(=O)Nc2ccc3cc2OCCOCCNc2ccn4ncc-3c4n2)ccc1F` [compound 33], for which the ΔTm at 10 µM was -0.3 °C in test [1]; 3.9 °C in test [2]; 0.8 °C in test [3]; 0.9 °C in test [4]; 2.7 °C in test [5]; 2.8 °C in test [6]. The figures for the ΔTm at 10 µM in test [7] and in test [8] were 0.5 °C and 0.1 °C, respectively.
As for `C[C@H](NC(=O)Nc1ccc2cc1OCCOCCNc1ccn3ncc-2c3n1)c1ccccc1` [compound 34], the ΔTm at 10 µM in test [1] was -0.3 °C; in test [2], 3.6 °C; in test [3], 0.5 °C; in test [4], 0.9 °C; in test [5] it was 2.7 °C; in test [6] it was 0.1 °C. Besides, the values for the ΔTm at 10 µM in test [7] and in test [8] were 0.5 °C and -0.3 °C, respectively.
